Where two headings read alike, the source gives them in different places.
Columns and labels:
[1] = Carrageenan Pleurisy Assay (CPA), acute anti-inflammatory activity; assay type: in vivo; conditions: po, read-out: ED50, dose required to reduce the 3 hour exudate volume by 50%
Source text: Following the procedure described by Vinegar et al., in Proc. Soc. […] There were 5 animals in each drug-treated group and the control group.

[2] = tested on: 51Cr-labelled EL4 cells; test: Assay of lymphocyte mediated cytolysis (LMC) in vitro; assay type: cell-based; conditions: for % lysis Reduction: in presence of ADA inhibitor EHNA 7.9 µM
Procedure: The test compounds were assayed in vitro by the method described in Science, (N.Y.), 187, 957 (1975). The order of addition of reagents was (1) cytotoxic lymphocytes; (2) tests compound dissolved in pyrogen-free saline; (3) ^51Cr-labelled EL4 cells. In those experiments where an adenosine deaminase (ADA) inhibitor was required erthro-9-(2-hydroxy-3-nonyl)adenine (EHNA) was added before step (2) to give a final concentration of 7.9 µM.

[3] = tested on: chromium-labelled heterologous (sheep) erthrocytes target cells coated with mouse anti-sheep erythrocyte serum; test: Antibody-Dependent Cellular Cytotoxicity assay in vitro; assay type: cell-based
Procedure: The title compound was tested in vitro in Antibody-Dependent Cellular Cytotoxicity assay [Perlmann, P. and Holm, G., Adv. Immunol., 11, 117, (1969)]. Mouse spleen cells from non-immunized animals served as the source of effector cells, assayed with chromium-labelled heterologous (sheep) erthrocytes target cells coated with mouse anti-sheep erythrocyte serum. The final concentration of the anti-serum in the incubation mixture was 1:66, the ratio of effector to target cells 25:1.

[4] = Toxicity in animal models: liver damage, therapeutic index
[5] = Solubility in water; assay type: physicochemical
[6] = Duration of action and half life; conditions: in vivo
[7] = Antipyretic and analgesic activity; conditions: in vivo
[8] = tested on: lipoxgenase or cyclooxygenase pathway; test: Inhibition of prostaglandin metabolism in vitro; assay type: biochemical
[9] = Mus musculus, EL4, read-out: % lysis Reduction

For `CC(=O)Oc1ccccc1C(=O)O` [Aspirin], the ED50 ([1]; 3 h) was 28 ± 3.2 mg/kg.

Work on `Nc1nc(F)nc2c1ncn2[C@@H]1O[C@H](CO)[C@@H](O)[C@H]1O` [2-Fluoro-adenosine] yielded an inhibition at 1 µM [2, 9] of 48.9% and an inhibition at 2 µM [2, 9] of 60%.

With `Nc1nc(Cl)nc2c1ncn2[C@@H]1O[C@H](CO)[C@@H](O)[C@H]1O` [2-Chloro-adenosine] the inhibition at 4.7 µM [2, 9] was 62.2% and the inhibition at 9.4 µM [2, 9] was 64.4%.

Compound `C[C@]12C=CC(=O)C=C1CC[C@@H]1[C@@H]2[C@@H](O)C[C@@]2(C)[C@H]1CC[C@]2(O)C(=O)CO` [Prednisolone] has an ED50 ([1]; 3 h) of 3 ± 0.5 mg/kg.

With `Nc1ncnc2c1ncn2[C@@H]1O[C@H](CO)[C@@H](O)[C@H]1O` [Adenosine] the “% lysis Reduction” value ([2]; Conc. 9.4 µM) was 59% and the “% lysis Reduction” value ([2]; Conc. 18.8 µM) was 59%.

In the case of `C[C@]12CCC(=O)C=C1CC[C@@H]1[C@@H]2[C@@H](O)C[C@@]2(C)[C@H]1CC[C@]2(O)C(=O)CO` [Hydrocortisone], the ED50 ([1]; 3 h) is reported as 14 ± 10.2 mg/kg.

`Nc1nccc2c1ncn2[C@@H]1O[C@H](CO)[C@@H](O)[C@H]1O` [(4-amino-1-β-D-ribofur-anosyl-1H-imidazo-[4,5-c]-pyridine, reference compound] showed an inhibition at 3.1 µM ([3]; 4 h) of 52.3%, an inhibition at 6.2 µM ([3]; 4 h) of 64.8% and an inhibition at 12.5 µM ([3]; 4 h) of 66.4%.

With `Nc1nccc2c1ncn2[C@H]1C[C@H](O)[C@@H](CO)O1` [4-amino-1-(2-deoxy-β-D-ribofuranosyl)-1H-imidazo-[4,5-c]-pyridine] the liver damage ([4]; in the animal models used) was “does not cause liver damage”, the therapeutic index ([4]; in vivo) was “high” and the inhibition at 18.8 µM ([2]; Mus musculus, EL4, Conc. 18.8 µM, read-out: % lysis Reduction) was 53%. For the same compound, the inhibition at 37.5 µM ([2]; Mus musculus, EL4, Conc. 37.5 µM, read-out: % lysis Reduction) was 73%, the “inhibition of lymphocyte mediated cytolysis” value ([2]; summary statement) was “potent inhibitor” and the solubility in water [5] was “highly soluble in water”. It also gave an inhibition at 100 µM ([3]; 100 µM, 4 hours of incubation at 37 °C, effector to target cells 25:1, read-out: inhibition of target cell-specific chromium release) of 83.2%, an inhibition at 3.1 µM ([3]; 4 h) of 31.2% and an inhibition at 6.2 µM ([3]; 4 h) of 42.1%. The inhibition at 12.5 µM ([3]; 4 h) was 55.9%, the inhibition at 25 µM ([3]; 4 h, Dose 25.0 μM) was 60.2% and the IC50 ([3]; dose-response study) was 6.2 to 12.5 µM. The duration of action [6] was “about 15 hours”, the half life [6] was “short” and the “analgesic activity per se” value [7] was “no analgesic activity”. The antipyretic activity [7] was “not antipyretic”, the ED50 ([1]; 3 hr. vol. p.o., mg/kg of body weight) was 12 mg/kg and the “inhibition of prostaglandin metabolism” value [8] was “does not inhibit”.

— EP0038569A2, “Deazapurine nucleosides, formulations and preparation thereof” (THE WELLCOME FOUNDATION LIMITED, priority 1980, dated 1981)
